assay: gradient 5% acetonitrile 3 min, to 50% in 2 min, to 85% in 15 min, held 3 min, 100 µL/min; conditions: column: Zorbax Extend-C18 2.1 x 50 mm; eluents: water / acetonitrile, 0.1% formic acid
Outline: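 Each retention time is based on an adduct peak selected computationally and verified by manual inspection. Measurements used HPLC–quadrupole time-of-flight mass spectrometry in positive and negative ionization mode on mixtures of ~100 pure standards. Chromatography ran on a Zorbax Extend-C18 column (2.1 × 50 mm, 1.8 μm) at 100 μL/min with water and acetonitrile, each containing 0.1% formic acid, and dead and dwell volumes of 40 μL and 900 μL.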

SMILES	RP-LC retention time [s]
CCCCOc1ccc(-c2cc3c4nn(CC(=O)NC(C)C)c(=O)n4ccn3n2)cc1	954
CCCN1CCN(C(=O)CN2C(=O)C(C)(C)c3cc(C)ccc32)CC1	624
Cn1nc(C(=O)NCc2ccc3c(c2)OCO3)c2c1CCN(C(=O)C1CC1)C2	716
Cc1oc(-c2[nH]ncc2C(=O)N2CCOCC2)cc1S(=O)(=O)N1CCCC1	616
Cc1cccc(CNC(=O)c2csc(C(=O)NC3CC3)n2)c1	824
COc1ccc(Cl)cc1S(=O)(=O)NCCc1c[nH]c2ncccc12	654
O=C(NC1CCCC1)C1CCCN(S(=O)(=O)c2cc(-c3noc(C4CCCC4)n3)cs2)C1 (stereo not drawn)	1120
Cc1cc(N2CCN(C(=O)Nc3cccc(C(F)(F)F)c3)CC2)nc(N2CCCC2)n1	760
CC(=O)Nc1ccc(-c2nc(-c3ccc4c(c3)oc(=O)n4C(C)C)no2)cc1	943
c1ccc(-c2nc3nccc(-c4cccc5ccccc45)n3n2)cc1	995
C=Cc1ccc(Cn2cccc(S(=O)(=O)N3CCCC3)c2=O)cc1	886
Cc1ccc(NC(=O)Cn2cnc(C)c(C)c2=O)c(F)c1	667
O=C(Nc1cccc(N2CCCCC2=O)c1)OCc1ccccc1	724
O=C(Cc1nnc(-c2ccc3ncccc3c2)o1)NCc1cccc(Cl)c1	722
COc1cccc(NC(=O)Nc2ccc(-c3cn4ccc(C)nc4n3)cc2)c1	639
O=C(c1ccco1)N1CCN(c2ccc3cc(S(=O)(=O)N4CCOCC4)ccc3n2)CC1	661
COc1ccccc1-n1ccn(Cc2nc(-c3cccc(F)c3)no2)c(=O)c1=O	861
CCc1nnc2ccc(NC(=O)Nc3cccc(F)c3)cn12	710
O=C1NCCCn2nc(C3CCN(C(=O)Nc4cccc(C(F)(F)F)c4)CC3)cc21	721
COc1cccc(C(=O)Nc2cc(-c3ccccn3)no2)c1	788

SMILES	RP-LC retention time [s]
Cc1cccc(-c2nc(Nc3ccc(C(=O)O)cc3)c3ccccc3n2)c1	689
CCn1c(=O)c(N2CCC(NC(=O)Nc3ccc4c(c3)OCCO4)CC2)nc2ccccc21	838
CCc1nc2cc(N3CCCC(C(=O)NCCN4CCN(C)CC4)C3)cnc2nc1CC (stereo not drawn)	583
O=C(NCc1ccccc1Cl)c1ccc2c(cnn2CC(=O)N2CCCCCC2)c1	830
Cc1ccc(-c2nnc(-c3nn(C)c4c3CN(S(=O)(=O)c3cc(F)ccc3C)CC4)o2)cc1	1050
O=C(Nc1nc(-c2cc([N+](=O)[O-])cs2)cs1)c1coc2ccccc2c1=O	1110
COc1cccc(N2CCN(C(=O)C3CCN(c4ncnc5c4oc4ccccc45)CC3)CC2)c1	794
COc1ccc(NC(=O)C2CCCN(c3nnc4ccccn34)C2)cc1Cl (stereo not drawn)	702
Cc1ccn2c(Nc3ccc(Cl)cc3)c(-c3ccc(N4CCOCC4)cc3)nc2c1	967
CCOc1ccc(NC(=O)NCCC2CCN(S(=O)(=O)c3ccccc3)CC2)cc1	836
O=C(CCC1CCN(S(=O)(=O)c2ccccc2)CC1)NC1CCCC1	852
CN(C)c1ccc(CCNC(=O)C(=O)NC2CC2)cc1	523
CSc1ccccc1CN1CCC(CNC(=O)C(=O)NCC(F)(F)F)CC1	574
Cc1cc(N2CCCCC2)nc(N2CCN(C(=O)c3ccc(C(C)(C)C)cc3)CC2)n1	855
Cc1ccc(-c2cc(C(=O)O)c3c(-c4ccc(C)cc4)[nH]nc3n2)cc1	856
Fc1ccc(CN2CCN(c3cnn4c(C5CC5)nnc4c3)CC2)cc1	498
CNC(=O)C1CCCN(c2nc3ncn(CC(=O)NC4CCCCC4)c(=O)c3s2)C1 (stereo not drawn)	632
CCN1CCCC(C(=O)NCc2cccc(OC)c2OC)(c2ccccc2)CC1 (stereo not drawn)	660
COc1cccc(NC(=O)C2CCN(S(=O)(=O)c3cc(C(=O)N4CCOCC4)cs3)CC2)c1	747
O=C(Nc1ccccn1)C1CCN(S(=O)(=O)c2cc(-c3noc(C4CCC4)n3)cs2)CC1	893

SMILES	RP-LC retention time [s]
CCn1cc(CN2C[C@@H](COC)[C@H](c3nc(C)no3)C2)c2ccccc21	676
Cc1ccc(Sc2nccnc2N2CCC(C(=O)N3CCN(c4ccccn4)CC3)CC2)cc1	706
Cc1nc2cc(-c3noc(-c4ccccc4C)n3)ccc2o1	640
CC(C)CCNC(=O)C1CCCN(c2nccn3nc(-c4ccccc4Cl)cc23)C1 (stereo not drawn)	969
Cc1ccc(N2C(=O)CN(S(=O)(=O)c3ccccc3)CC2(C)C(=O)NCc2ccc(F)cc2)cc1 (stereo not drawn)	875
CCn1cc(-c2nc(C)c(C(=O)Nc3cc(F)ccc3F)s2)c2cccnc21	1070
NS(=O)(=O)c1ccc(NC(=O)Cn2cnc(-c3ccccc3)cc2=O)cc1	638
COc1ccc(OC)c(C(O)CN2CCN(c3ccc(C)cc3)CC2)c1 (stereo not drawn)	653
COc1ccc(NS(=O)(=O)c2cccc(-c3nc(-c4ccccc4)no3)c2)cc1OC	1060
COc1ccc2[nH]cc(CCNC(=O)c3c(-c4cccnc4)noc3C)c2c1	667
Cn1cc(-c2ccncc2)cc1C(=O)N1CCC2(CC1)OCCO2	562
O=C(NCCN1CCOCC1)c1csc(N2CCN(c3ccc(F)cc3)CC2)n1	664
O=C([C@@H]1C[C@H](F)CN1C(=O)Nc1ccc(F)cc1)N1CCOCC1	608
Cc1cc(CN2CCC(CNC(=O)C(=O)NCc3ccc4c(c3)OCO4)CC2)c(C)o1	583
CCN(C(=O)c1cc(OC)cc(OC)c1)c1nc(-c2ccccc2)cs1	1260
CN(C)S(=O)(=O)c1ccc(-c2nnc(C(=O)NC3CCCCCC3)o2)cc1	926
CCCCN(C)C(=O)Cn1ccn2nc(-c3ccc(F)cc3)c(CO)c2c1=O	765
COc1ccc(CCO[C@@H]2CCCC[C@H]2N2CC[C@@H](O)C2)cc1OC	684
Cc1nc(C)c(C(=O)NCC2Cn3cccc3C(=O)N2C)s1 (stereo not drawn)	594

The next lines start with the values.

RP-LC retention time [s]	SMILES
616	COc1ccc(NC(=O)C2CCN(c3cncnc3N3CCCC3)CC2)cc1OC
671	Cc1oc2c(c1C(=O)Nc1ccc(F)cc1Br)C1=NC(C)(C)CN1C=N2
561	Nc1nc(CN2CCN(c3ccccn3)CC2)nc(N2CCCCC2)n1
778	CCN1CCCn2cc(S(=O)(=O)NCc3ccc(C)cc3)cc2C1=O
649	Fc1ccccc1-c1noc(N2CCN(c3ccccn3)CC2)n1
766	Cc1nn(CC(=O)NCCc2c[nH]c3ccc(Cl)cc23)c(=O)c2noc(C)c12
942	COc1ccc(C2CC(=O)N(c3ccc(Cl)cc3)C(=O)C2)cc1
885	CCn1c(C(=O)N2CCCC(C(=O)N3CCN(c4ccc(OC)cc4)CC3)C2)cc2sccc21 (stereo not drawn)
880	O=S(=O)(c1cccn2c(SCc3ccccc3Cl)nnc12)N1CCCC1
836	O=C(NCc1ccccc1)C1=C2CCCN2c2ccc(F)cc2S1(=O)=O
995	COC(=O)c1ccc2c(=O)n(CCc3ccccc3)c(N3CCOCC3)nc2c1
858	Cc1ccc(C(=O)N2CCC3(CC2)N=C(c2ccc(C)cc2)NO3)cc1
1170	CCc1nc(-n2cccc2)sc1C(=O)Nc1cccc(F)c1
563	O=C(NCCN1CCOCC1)C1CCc2sc(C(=O)N3CCCCC3)cc2C1 (stereo not drawn)
1140	Cc1ccc2nc(-c3ccccc3NC(=O)c3ccc(Br)o3)[nH]c2c1
652	COc1ccc(CNc2nc3ccncc3n(C(C)C)c2=O)cc1
630	CC(=O)c1sc(NC(=O)c2ccn(C)n2)nc1C
673	CCCCC(=O)Nc1ccc2nc(N3CCN(c4ccc(OC)cc4)CC3)cc(C(=O)O)c2c1
817	Cc1cc(F)ccc1NC(=O)CN1C(=O)CCCc2cc(S(=O)(=O)N3CCCC3)ccc21
1200	Cc1ccc2c(c1)N(Cc1nc(-c3ccc(F)c(Cl)c3)no1)C(=O)CO2
784	CCc1noc(-c2cnc3nc(C)ccc3c2NCc2ccccc2C)n1
574	NC(=O)C1(N2CCCCC2)CCN(C(=O)c2cc3ccc4cccnc4c3[nH]2)CC1
772	CCc1ccc(-c2cc(C(=O)N3CCN(Cc4noc5ccccc45)CC3)[nH]n2)cc1
647	CCOC(=O)C(C)Sc1ccc2nnc(CCNC(=O)c3ccc(OC)cc3)n2n1 (stereo not drawn)
862	CN1C(=O)c2cc(S(=O)(=O)Nc3ccccc3)ccc2Oc2cccnc21
1020	CCc1nc(-c2csc(S(=O)(=O)N3CCCC(C(=O)NC4CCCCC4)C3)c2)no1 (stereo not drawn)
814	CCOc1ccccc1NC(=O)C1CCN(C(=O)C2Sc3ccccc3NC2=O)CC1 (stereo not drawn)
922	COc1ccc(-c2nnc(-c3ccc(OC)c(S(=O)(=O)N4CCCCC4)c3)o2)cc1OC
806	COCCCNC(=O)c1ccc(-c2cnc(NC3CCCCC3)nc2)cc1

From the METLIN SMRT retention time set (Domingo-Almenara et al. 2019)
